Data: PMC10218704, “A Novel Blood–Brain Barrier-Penetrating and Vascular-Targeting Chimeric Peptide Inhibits Glioma Angiogenesis” (International Journal of Molecular Sciences, 2023)
Ends that are not written are not given here.

How the values were obtained:
[1] = tested on: HUVECs; experiment: Cell proliferation assay (MTT); type: cell-based, human; conditions: 48 h, VEGF-A165 30 ng/mL, n = 3
Method: The anti-proliferative effect was evaluated by the MTT assay.
Briefly, HUVECs were seeded into 96-well plates (5 × 10^3 cells/well) and allowed to attach overnight. […] Then, 20 µL of MTT solution was added to each well and further cultured for 4 h under dark conditions. After removing the medium, 150 µL of DMSO was added to dissolve formazan crystals. The 96-well plates were shaken at a low speed for 10 min. The absorbance was measured at 490 nm using a Microplate Reader (Bio-Rad 680, Hercules, CA, USA).

[2] = tested on: HUVECs; experiment: Wound healing assay (cell migration); type: cell-based, human; conditions: 160 μmol/L; VEGF-A165 30 ng/mL; at 24 h or 48 h after scratch; n = 3
Method: HUVECs were firstly seeded into 6-well culture plates (3 × 10^5 cells/well). Following overnight incubation, the monolayer HUVECs were scraped by pipette tips of 200 μL and washed by cold PBS. […] The cells were incubated for another 48 h. Images were captured at 0 h, 24 h, and 48 h using an inverted microscope. The cell migration rate was counted by the ImageJ software.

[3] = tested on: HUVECs; experiment: Tube formation assay on Matrigel; type: cell-based, human; conditions: 160 μmol/L, VEGF-A165 30 ng/mL, 6 h, n = 3
Method: Matrigel was added to 96-well plates with 60 min of incubation at 37 °C for solidification. […] The tubular structures were observed under an inverted microscope and the total branching lengths were calculated by the ImageJ V 1.8.0 software.

[4] = tested on: HUVECs; experiment: Hoechst 33,258 staining (apoptosis); type: cell-based, human; conditions: 320 μmol/L; 24 h
Method: HUVECs were seeded into 6-well culture plates (3 × 10^5 cells/well). […] After discarding the supernatant and washing with cold PBS, the cells were fixed in 4% paraformaldehyde and stained with Hoechst 33,258 for 10 min. Then, the cells were washed with cold PBS and observed using an inverted fluorescence microscope.

[5] = tested on: VEGFR-2; experiment: Western blot, phosphorylation of VEGFR-2; type: cell-based, human; conditions: 320 μmol/L; 90 min; VEGF-A165 30 ng/mL; HUVECs; n = 3
Method: (§1) For Western blotting analysis, HUVECs were seeded into 6-well culture plates at 3 × 10^5 cells/well and incubated overnight. […] Two control groups (F-12K medium in the absence or presence of VEGF-A165) were set. The cells were washed with cold PBS and lysed with lysis buffer (protease and phosphatase inhibitors) on the ice for 30 min, and then centrifuged at 4 °C for 15 min at 14,000 r/min. The supernatant was collected, and its total protein concentration was determined by the BCA protein assay kit. Equal amounts of proteins were separated by 10% SDS-PAGE gels and transferred to polyvinylidene difluoride (PVDF) membranes. After blocking with 5% non-fat milk for 1 h, the membranes were incubated with specific antibodies at 4 °C overnight. Then, the membranes were washed with TBST (Tris-Buffered Saline with 0.1% Tween 20) and incubated with horseradish peroxidase (HRP)-conjugated secondary antibody for 1 h at room temperature. The proteins on the membranes were visualized with enhanced chemiluminescence agents.

[6] = tested on: PLC-γ; experiment: Western blot, phosphorylation of PLC-γ; type: cell-based, human; conditions: 320 μmol/L, 90 min, VEGF-A165 30 ng/mL, HUVECs, vs control, AT7, TAT, n = 3
Method: as §1

[7] = tested on: ERK1/2; experiment: Western blot, phosphorylation of ERK1/2; type: cell-based, human; conditions: 320 μmol/L, 90 min, VEGF-A165 30 ng/mL, HUVECs, vs control, AT7, TAT, n = 3
Method: as §1

[8] = tested on: SRC; experiment: Western blot, phosphorylation of SRC; type: cell-based, human; conditions: 320 μmol/L, 90 min, VEGF-A165 30 ng/mL, HUVECs, vs control, AT7, TAT, n = 3
Method: as §1

[9] = tested on: AKT; experiment: Western blot, phosphorylation of AKT; type: cell-based, human; conditions: 320 μmol/L, 90 min, VEGF-A165 30 ng/mL, HUVECs, vs control, AT7, TAT, n = 3
Method: as §1

[10] = tested on: VEGFR-2 and the above kinases (PLC-γ, ERK1/2, SRC, AKT, FAK); experiment: Western blot, total expression levels; type: cell-based, human; conditions: 320 μmol/L; 90 min; VEGF-A165 30 ng/mL; HUVECs; n = 3
Method: as §1

[11] = tested on: red blood cells; experiment: Hemolysis assay; conditions: 2.5–640 μmol/L; 37 °C, 1 h; 540 nm; mouse red blood cells; n = 3
Method: The fresh blood of mice was centrifuged at 2000 r/min for 10 min, and the upper layer of serum was discarded, then mixed with normal saline and centrifuged at 2000 r/min for 10 min, repeated three times, and the supernatant was removed to obtain the lower layer of red blood cells. Then, 1 mL of red blood cells was diluted to 50 mL with normal saline. […] The samples were incubated at 37 °C for 1 h, centrifuged at 2000 r/min for 10 min, and photographed. Light absorption of samples was measured at 540 nm on a microplate reader.
Cell hemolysis rate (%) = (OD experimental group − negative control group)/(OD positive control group − negative control group) × 100%.

[12] = Body weight and physiological status of glioma-bearing nude mice; type: in vivo; conditions: 20 mg/kg/day i.v., 11 days
Method: (§2) The orthotopic U87-mCherry-luc glioma-bearing nude mice were randomly assigned to 6 groups (n = 5) according to the bioluminescence intensity of glioma measured on day 4. […] The bioluminescence intensity was measured on days 4, 7, 11, and 14, respectively. Nude mice were weighed daily. On day 15, the mice were sacrificed, and the glioma-bearing brains were harvested. The brain tissues were fixed with 4.0% paraformaldehyde, embedded in paraffin, and cut into slices. The TUNEL staining and CD31 immunohistochemical staining were conducted according to standard histological procedures.

[13] = tested on: U87-mCherry-luc glioma tissue; experiment: TUNEL staining of glioma tissue; type: in vivo, nude mice; conditions: 20 mg/kg/day i.v., 11 days; tissue at day 15; n = 3
Method: as §2

[14] = tested on: glioma blood vessels (CD31); experiment: CD31 immunohistochemical staining of glioma tissue (blood vessel density); type: in vivo, nude mice; conditions: 20 mg/kg/day i.v., 11 days; tissue at day 15; n = 3
Method: as §2

[15] = tested on: VEGF-induced rabbit corneal angiogenesis; conditions: cited from earlier work
From the text: Most peptides and proteins are usually functional and efficacious signaling molecules that naturally exist or are synthesized by artificial methods. Compared with proteins, peptides have higher tissue permeability, protease hydrolysis tolerability, and lower production costs. Furthermore, the pharmacological functions of peptides are easier to be improved by modification strategies, whereas their intrinsic properties are rarely affected. […] ATWLPPR (AT7), which was identified by a mutated phage lib ...

**Q.** For `CC(C)C[C@H](NC(=O)[C@H](Cc1c[nH]c2ccccc12)NC(=O)[C@@H](NC(=O)[C@H](C)NC(=O)[C@H](CS)NC(=O)[C@H](CCCNC(=N)N)NC(=O)[C@H](CCCNC(=N)N)NC(=O)[C@H](CCCNC(=N)N)NC(=O)[C@H](CCC(N)=O)NC(=O)[C@H](CCCNC(=N)N)NC(=O)[C@H](CCCNC(=N)N)NC(=O)[C@H](CCCCN)NC(=O)[C@H](CCCCN)NC(=O)[C@@H](N)CCCNC(=N)N)[C@@H](C)O)C(=O)N1CCC[C@H]1C(=O)N1CCC[C@H]1C(=O)N[C@@H](CCCNC(=N)N)C(=O)O` [TAT-AT7], which “inhibition rate on HUVECs' proliferation” value ([1]; 320 μmol/L, MTT, 490 nm) is on record?
**A.** The value was “more than 50%”.

**Q.** What about the “inhibition of HUVECs' proliferation” value ([1]; 20-320 μmol/L, MTT) of the same compound?
**A.** Its value is “significantly inhibit proliferation of HUVECs in a concentration-dependent manner”.

**Q.** And the “inhibition rate compared with AT7, TAT, TAT+AT7” value ([1]; concentration higher than 40 μmol/L)?
**A.** Its value is “significantly higher than that of the AT7, TAT, and TAT+AT7 groups”.

**Q.** What about the migration rate [2] of the same compound?
**A.** The migration rate was “significantly lower than that of the control, AT7, TAT, and TAT+AT7 groups”.

**Q.** What about the “formation of tubular structures” value [3] of the same compound?
**A.** The value was “significantly inhibit the formation of tubular structures in HUVECs”.

**Q.** And the “total branch length of the tubular structure” value ([3]; vs AT7, TAT, and TAT+AT7 groups)?
**A.** Its value is “significantly reduced”.

**Q.** And the “number of apoptotic cells (Hoechst 33,258)” value [4]?
**A.** The value was “significantly increased compared to the control, AT7, TAT, and TAT+AT7 groups”.

**Q.** And the “phosphorylation level of VEGFR-2” value [5]?
**A.** The value was “reduce the phosphorylation level of VEGFR-2”.

**Q.** What about the “phosphorylation level of PLC-γ” value [6] of the same compound?
**A.** The value was “significantly inhibited the phosphorylation level”.

**Q.** And the “phosphorylation level of ERK1/2” value [7]?
**A.** Its value is “significantly inhibited the phosphorylation level”.

**Q.** And the “phosphorylation level of SRC” value [8]?
**A.** The value was “significantly inhibited the phosphorylation level”.

**Q.** What about the “phosphorylation level of AKT” value [9] of the same compound?
**A.** The value was “significantly inhibited the phosphorylation level”.

**Q.** And the “total expression levels of VEGFR-2 and the above kinases” value [10]?
**A.** Its value is “no significant effect on the total expression levels”.

**Q.** And the “hemolysis” value [11]?
**A.** The value was “did not cause obvious hemolysis”.

**Q.** What about the hemolysis rate [11] of the same compound?
**A.** Its hemolysis rate is “lower than 5%”.

**Q.** What about the “rate of weight loss” value [12] of the same compound?
**A.** The value was “slower than that in the normal saline group”.

**Q.** What about the “toxicity and safety in nude mice” value ([12]; body weight and physiological status, 14th day) of the same compound?
**A.** The value was “less toxicity and better safety for nude mice”.

**Q.** What about the “number of apoptotic cells (TUNEL)” value [13] of the same compound?
**A.** Its value is “significantly higher than that in the saline, AT7, TAT, and TAT+AT7 groups”.

**Q.** And the “blood vessel density (CD31)” value [14]?
**A.** The value was “significantly lower than that in the other groups”.

**Q.** Which “effect on VEGF-induced rabbit corneal angiogenesis” value [15] does the source give for ATWLPPR [AT7, ATWLPPR] here?
**A.** Its value is “inhibitory effect on VEGF-induced rabbit corneal angiogenesis”.
